For orientation: IC50 means the concentration that inhibits the measured activity by half. What is called inhibition is the percentage by which the read-out fell short of the control.

The test addresses T1, FmlHLD (Escherichia coli, UniProt P77588).
T1 construct: 6xHis (C); made in house; host or cells: E. coli C600, periplasm, pTRC99a
Put plainly: biochemical. In kind it is binding, E. coli. The settings on record: for inhibitory potency against FmlH, in words: ELISA-based competition assay; for PI100 (percent inhibition): galactoside at 100 μM, 100 µM; for inhibition at 10 µM: read-out: PI10 (percent inhibition), galactoside at 10 μM; for inhibition at 100 µM: read-out: PI100 (percent inhibition), galactoside at 100 μM. On the procedure: Thereafter, wells were incubated with 200 μl blocking buffer (PBS+1% BSA) for 2 hours at 23° C., followed by incubation with 100 μl biotinylated FmlHLD diluted in blocking buffer to 20 μg/ml in the presence or absence of the tested compounds for 1 hr at 23° C. After washing 3× with PBS+0.05% TWEEN-20, 100 μl Streptavidin-HRP conjugate (BD Biosciences; 1:2000 dilution in blocking buffer) was added to each well for 1 hr at 23° C. After a final round of washing, plates were developed with 100 μl Tetramethylbenzidine (TMB, BD Biosciences) substrate, quenched within 1-2 min with 50 μl […], and absorbance measured at 450 nm.
Select top hit compounds and few low-scoring analogs from the virtual screening, as well as synthetic galactosides, were tested in the ELISA-based competition assay for their ability to inhibit binding of FmlHLD to ds-BSM. The ELISA assay was performed using the protocol described in Example 18. […] All compounds were tested at 100 μM; a subset was tested at 10 μM; and the strongest subset was additionally tested at 1 μM. […] Percent inhibition (PI) values are reported as the mean with standard error of the mean for galactosides tested at 100 μM (PI100), 10 μM (PI10), and 1 μM (PI1) in the ELISA-based competition assay. […] The “thio” designation indicates a sulfur linkage between the sugar and the aglycone group, the “phospho” designation indicates a phosphate group attached the C6-hydroxyl group on the sugar, and the “uro” designation indicates galacturonide as the sugar.
The ELISA assay was performed using the protocol described in Example 18. All compounds were tested at 1 μM and a subset was additionally tested at 100 nM. Average percent inhibition (PI) values are reported for compounds tested at 1 μM (PI1) and 100 nM (PI0.1).
Briefly, 1 μg bovine submaxillary mucin (Sigma) in 100 uL PBS were incubated with Immulon 4HBX 96-well plates overnight prior to treatment with 1 mU Arthrobacter ureafaciens sialidase for 1 hour at 37° C. to remove terminal sialic acid sugars. Wells were then blocked with 200 μL PBS+1% BSA for 2 hours at room temperature. Biotinylated FmlH^LD was diluted to 20 μg/mL in blocking buffer and incubated in the presence or absence of compounds serially diluted 2× down eight rows for 1 hour at room temperature. Wells were washed three times with PBS 0.05% TWEEN-20 then incubated with 100 μL of streptavidin-HRP conjugate (BD Biosciences; 1:2,000 dilution in blocking buffer) for one hour. After three additional PBS+0.05% TWEEN washes, plates were developed with 100 μL of tetramethylbenzidine (BD Biosciences) substrate and quenched with 50 μL of 1 M H2SO4. Total bound portion concentration was measured by the absorbance at 450 nm. IC50s were determined using the Graphpad Prism software.
The compounds synthesized herein were tested in the ELISA-based competition assay for their ability to inhibit binding of FmlHLD to ds-BSM. The ELISA assay was performed using the protocol described in Example 18. Compounds were tested at […], 1 μM, and 100 nM. as indicated on the table. […] ND means the corresponding value was not determined for this summary (but may be available elsewhere in the Examples).
A general note: In an ELISA, binding on a coated surface is turned into a signal by an enzyme label.

Where [1] appears, read: IC50 (μM), Table 5, Gal and GalNAc inhibition of FmlH.
[2] abbreviates: IC50, inhibition of FmlHLD binding to ds-BSM.
[3] abbreviates: read-out: % Inhibition at [μM] [0.1], compound at 0.1 μM (100 nM), inhibition of FmlHLD binding to ds-BSM.
Setting [4] is: read-out: % Inhibition at [μM] [1], compound at 1 μM, inhibition of FmlHLD binding to ds-BSM.
[5] abbreviates: read-out: PI (0.1) (average percent inhibition), compound at 100 nM, Table 4.
The mark [6] stands for this setting: read-out: PI(1) (average percent inhibition), compound at 1 μM, Table 4.
The mark [7] stands for this setting: mean with standard error of the mean.
Where [8] appears, read: read-out: PI1 (percent inhibition), galactoside at 1 μM, mean with standard error of the mean.

Like-named read-outs stand apart in the source and are kept apart here.

T1 sequence (P77588 25-182): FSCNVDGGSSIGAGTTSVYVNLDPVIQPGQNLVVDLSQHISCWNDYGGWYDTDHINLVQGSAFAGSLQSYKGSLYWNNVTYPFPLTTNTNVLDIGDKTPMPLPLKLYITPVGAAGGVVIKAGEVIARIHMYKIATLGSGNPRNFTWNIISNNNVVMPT

For the compound `COC(=O)Nc1cccc(-c2ccccc2O[C@@H]2O[C@H](CO)[C@H](O)[C@H](O)[C@H]2NC(C)=O)c1` [AM2065, methyl (2′-(((2S,3R,4R,5R,6R)-3-acetamido-4,5-dihydroxy-6-(hydroxymethyl)tetrahydro-2H-pyran-2-yl)oxy)-[1,1′-biphenyl]-3-yl)carbamate], the “inhibitory potency against FmlH, in words” value (shortened to “inhibitory potency”) is “equal or slightly reduced potency”. The compound also yielded an IC50 under setting [1] of 0.63 µM. The compound also yielded an IC50 under setting [2] of 1.05 µM. Also, under setting [3], the inhibition at 0.1 µM was determined as 0%. The inhibition at 1 µM under setting [4] was determined as 45.3%. Besides, the inhibition at 0.1 µM under setting [5] came out at 0%. Under setting [6], the inhibition at 1 µM was determined as 45.3%.

On to `COc1ccc(O)cc1-c1ccccc1O[C@@H]1O[C@H](CO)[C@H](O)[C@H](O)[C@H]1NC(C)=O` [AM2073, N-((2S,3R,4R,5R,6R)-4,5-dihydroxy-2-((5′-hydroxy-2′-methoxy-[1,1′-biphenyl]-2-yl)oxy)-6-(hydroxymethyl)tetrahydro-2H-pyran-3-yl)acetamide], for which the “inhibitory potency” value is given as “equal or slightly reduced potency”. For the same compound, under setting [1], the IC50 stood at 0.51 µM. The inhibition at 0.1 µM under setting [3] was 7.1%. Moreover, the inhibition at 1 µM under setting [4] turned out to be 34.2%. Under setting [5], the inhibition at 0.1 µM turned out to be 7.1%. Besides, under setting [6], the inhibition at 1 µM turned out to be 34.2%.

Regarding `COc1ccc(OS(C)(=O)=O)cc1-c1ccccc1O[C@@H]1O[C@H](CO)[C@H](O)[C@H](O)[C@H]1NC(C)=O` [AM2077, 2′-(((2S,3R,4R,5R,6R)-3-acetamido-4,5-dihydroxy-6-(hydroxymethyl)tetrahydro-2H-pyran-2-yl)oxy)-6-methoxy-[1,1′-biphenyl]-3-yl methanesulfonate], the “inhibitory potency” value was “equal or slightly reduced potency”. The compound also registered an IC50 under setting [1] of 3.72 µM. Moreover, the inhibition at 0.1 µM under setting [3] was found to be 2.5%. In addition, the inhibition at 1 µM under setting [4] was determined as 0%. Further, the inhibition at 0.1 µM under setting [5] came out at 2.5%. Further, the inhibition at 1 µM under setting [6] turned out to be 0%.

For `CC(=O)N[C@H]1[C@H](Oc2ccccc2-c2cccc(OS(C)(=O)=O)c2)O[C@H](CO)[C@H](O)[C@@H]1O` [AM2078, 2′-(((2S,3R,4R,5R,6R)-3-acetamido-4,5-dihydroxy-6-(hydroxymethyl)tetrahydro-2H-pyran-2-yl)oxy)-[1,1′-biphenyl]-3-yl methanesulfonate], the “inhibitory potency” value was “equal or slightly reduced potency”. For the same compound, under setting [1], the IC50 turned out to be 0.89 µM. Moreover, the inhibition at 0.1 µM under setting [3] is 2%. The inhibition at 1 µM under setting [4] is 32.5%. For the same compound, the inhibition at 0.1 µM under setting [5] amounted to 2%. Moreover, under setting [6], the inhibition at 1 µM was found to be 32.5%.

`COc1cccc(O[C@@H]2O[C@H](CO)[C@H](O)[C@H](O)[C@H]2NC(C)=O)c1-c1cccc(NS(C)(=O)=O)c1` [AM2082] came in with an IC50 under setting [2] of 0.151 µM.

Take `CC(=O)N[C@H]1[C@H](Oc2ccccc2-c2cccc(NC(=O)C(F)(F)F)c2)O[C@H](CO)[C@H](O)[C@@H]1O` [AM2101]: under setting [2], the IC50 was 1.02 µM. This IC50 is about 6.8-fold higher than that of the compound before.

Consider `CC(=O)N[C@H]1[C@H](Oc2cccc(C#N)c2-c2cccc(NS(C)(=O)=O)c2)O[C@H](CO)[C@H](O)[C@@H]1O` [AM2107], for which the IC50 under setting [2] came to 0.109 µM. Compared with the last compound, the IC50 is about 9.4-fold lower.

Turning to `CC(=O)N[C@H]1[C@H](Oc2cccc(F)c2-c2cccc(NS(C)(=O)=O)c2)O[C@H](CO)[C@H](O)[C@@H]1O` [AM2109], the IC50 under setting [2] is 0.151 µM.

Under setting [2], `CC(=O)N[C@H]1[C@H](Oc2cccc(C)c2-c2cccc(NS(C)(=O)=O)c2)O[C@H](CO)[C@H](O)[C@@H]1O` [AM2110] returned an IC50 of 0.122 µM. The IC50 values of the last two compounds are within 1.5-fold of each other.

Under setting [2], `CC(=O)N[C@H]1[C@H](Oc2ccccc2-c2cccc(NS(=O)(=O)C(F)(F)F)c2)O[C@H](CO)[C@H](O)[C@@H]1O` [AM2112] showed an IC50 of 2.43 µM.

Compound `CC(=O)N[C@H]1[C@H](Oc2ccccc2-c2cc(NS(=O)(=O)C(F)(F)F)ccc2F)O[C@H](CO)[C@H](O)[C@@H]1O` [AM2116] gave an IC50 under setting [2] of 3.07 µM.

As to `CC(=O)N[C@H]1[C@H](Oc2ccccc2-c2cc(C(=O)O)cc([N+](=O)[O-])c2)O[C@H](CO)[C@H](O)[C@@H]1O` [AM2119], the IC50 under setting [2] came to 1.72 µM.

In turn, `Cc1cccc(O[C@@H]2O[C@H](CO)[C@H](O)[C@H](O)[C@H]2NC(=O)C(F)(F)F)c1-c1cccc(NS(C)(=O)=O)c1` [AM2129] yielded an IC50 under setting [2] of 0.105 µM.

In the case of `CC(=O)N[C@H]1[C@H](Oc2cccc(C(F)(F)F)c2-c2cccc(NS(C)(=O)=O)c2)O[C@H](CO)[C@H](O)[C@@H]1O` [AM2134], the IC50 under setting [2] is 0.085 µM.

For the compound `CC(=O)N[C@H]1[C@H](Oc2cccc(C(=O)OCc3ccccc3)c2-c2cccc(NS(C)(=O)=O)c2)O[C@H](CO)[C@H](O)[C@@H]1O` [AM2141], the IC50 under setting [2] stood at 0.18 µM.

Under setting [2], `CC(=O)N[C@H]1[C@H](Oc2ccc3ccccc3c2-c2cccc(NS(C)(=O)=O)c2)O[C@H](CO)[C@H](O)[C@@H]1O` [AM2144] displayed an IC50 of 0.18 µM.

Under setting [2], `CC(=O)N[C@H]1[C@H](Oc2cccc(C(=O)O)c2-c2cccc(NS(C)(=O)=O)c2)O[C@H](CO)[C@H](O)[C@@H]1O` [AM2148] showed an IC50 of 0.13 µM.

For `CC(=O)N[C@H]1[C@H](Oc2cccc(C)c2-c2cccc(NS(=O)(=O)C3CC3)c2)O[C@H](CO)[C@H](O)[C@@H]1O` [AM2151], the IC50 under setting [2] was determined as 0.12 µM. The IC50 values of the last two compounds are within 1.5-fold of each other.

On to `CC(=O)N[C@H]1[C@H](Oc2cccc(C)c2-c2cccc(NS(=O)(=O)N(C)C)c2)O[C@H](CO)[C@H](O)[C@@H]1O` [AM2152], for which the IC50 under setting [2] came to 0.13 µM.

The compound `Cc1cccc(O[C@@H]2O[C@H](CO)[C@H](O)[C@H](O)[C@H]2NS(C)(=O)=O)c1-c1cccc(NS(C)(=O)=O)c1` [AM2186] came in with a half-maximal inhibitory concentration (IC50) under setting [2] of 3.5 µM.

Under setting [2], `O=[N+]([O-])c1cccc(-c2ccccc2O[C@@H]2O[C@H](CO)[C@H](O)[C@H](O)[C@H]2O)c1` [AM3049] had an IC50 of 15 µM.

With `OC[C@H]1O[C@@H](Oc2ccccc2)[C@H](O)[C@@H](O)[C@H]1O` [Compound 1β, phenyl β-galactoside], under setting [7], the “PI100 (percent inhibition)” value is recorded as 76.9 ± 0.4%, the inhibition at 10 µM is 15.5 ± 4.2% and the inhibition at 100 µM is 77%.

Consider `Cc1ccccc1O[C@H]1O[C@H](CO)[C@H](O)[C@H](O)[C@H]1O` [Compound 2α, 2-Methylphenyl α/β-D-Galactopyranoside], for which the inhibition at 100 µM under setting [7] turned out to be 30 ± 5.4%.

As for `Cc1ccccc1O[C@@H]1O[C@H](CO)[C@H](O)[C@H](O)[C@H]1O` [Compound 2β, 2-Methylphenyl α/β-D-Galactopyranoside], under setting [7], the “PI100 (percent inhibition)” value is 87.3 ± 3.7%, the inhibition at 10 µM is 28.2 ± 1.8% and the inhibition at 100 µM stood at 87%. The inhibition at 1 µM under setting [8] amounted to 1.8 ± 5.7%.

Regarding `N#Cc1ccccc1O[C@H]1O[C@H](CO)[C@H](O)[C@H](O)[C@H]1O` [Compound 3α, 2-cyanophenyl α/β-D-galactopyranoside], under setting [7], the inhibition at 100 µM worked out at 17.8 ± 6.3%.

Turning to `N#Cc1ccccc1O[C@@H]1O[C@H](CO)[C@H](O)[C@H](O)[C@H]1O` [Compound 3β, 2-cyanophenyl α/β-D-galactopyranoside], under setting [7], the “PI100 (percent inhibition)” value is 94.5 ± 0.3%, the inhibition at 10 µM is 30.4 ± 1.8% and the inhibition at 100 µM was 95%. In addition, the inhibition at 1 µM under setting [8] was found to be 12.1 ± 6.3%.

Take `OC[C@H]1O[C@@H](Oc2ccccc2Cl)[C@H](O)[C@@H](O)[C@H]1O` [Compound 6β, 2-chlorophenyl β-D-galactopyranoside]: under setting [7], the “PI100 (percent inhibition)” value amounted to 90.5 ± 0.6%, the inhibition at 10 µM is 20.7 ± 5.5% and the inhibition at 100 µM came to 90%. Besides, under setting [8], the inhibition at 1 µM was found to be 8 ± 4%.

Values taken from patent publication US11773127B2, “Compounds and methods for treating bacterial infections” (Washington University, priority 2017, dated 2023).
